# Data: publication PMC8956739, “A synthetic lipopeptide targeting top-priority multidrug-resistant Gram-negative pathogens” (Nature Communications, 2022)
# Several values for one entry are separate records, joined by “and”; a condition that tells them apart may be missing. Equal entries are not always repeated. Where two headings read alike, the source gives them in different places. Residues, ends and D or L forms follow the SMILES beside them.
# What was measured:
# [1] = Acute toxicity in mice (maximum tolerated dose, IV bolus); assay type: in vivo, mouse; settings: mouse, in vivo, iv, single IV bolus dose, replicates 1-4; read-out: MTD, single replicate
# Method in brief: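 Female Swiss mice (7 weeks, 22–28 g) given single IV tail-vein bolus of lipopeptide in 0.9% saline, dosed as mg/kg free base. Clinical toxicity signs monitored over 0–24 h, most frequently in first 2 h.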
# [2] = test system: A. baumannii FADDI-AB144; assay type: cell-based, Acinetobacter baumannii
# Method in brief: (§1)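 MICs were determined by broth microdilution in cation-adjusted Mueller–Hinton broth (CaMHB), with clinical isolates tested alongside ATCC strains.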
# [3] = test system: A. baumannii FADDI-AB161; assay type: cell-based, Acinetobacter baumannii
# Method in brief: as §1
# [4] = test system: A. baumannii FADDI-AB051; assay type: cell-based, Acinetobacter baumannii
# Method in brief: as §1
# [5] = test system: A. baumannii FADDI-AB051; test: Neutropenic mouse pneumonia model; assay type: in vivo; settings: for bacterial killing in lung at 24 h vs pre-treatment inoculum: 45 mg/kg/d IP in three divided doses every 8 h; for Tukey HSD diff, Pre-treatment minus treated group (Log10 CFU/lung) / Tukey HSD diff, Vehicle minus treated group (Log10 CFU/lung): Fig. b; for Log10 CFU/lung: Figure 3b, individual mice
# Experimental: The experimental methodology for the neutropenic mouse lung infection model was previously described in detail. Briefly, Swiss mice (female, 7-week-old, 22–28 g) were rendered neutropenic by intraperitoneal administration of cyclophosphamide, 4 days (150 mg/kg) and 1 day (100 mg/kg) prior to inoculation. Lung infection was established by the administration of 25 µL of early log-phase bacterial suspension (polymyxin-susceptible or resistant isolate, 4 × 10^7 CFU/mL), directly into the lungs via the trachea using a MicroSprayer™ device. Lipopeptide solutions were prepared in sterile saline. At 2 h after inoculation, mice (n = 3 or 4) were administered lipopeptide (45–240 mg/kg/d free base) or control (sterile saline) via an intraperitoneal or subcutaneous bolus injection in three divided doses every 8 h. At 0 or 24 h after the administration of lipopeptide solution or saline (control), animals were euthanized and lungs were collected and homogenized under sterile conditions. Homogenate was filtered and the filtrate was collected, serially diluted in sterile saline, and spread on nutrient agar plates. Agar plates were incubated at 37 °C overnight for bacterial colony counting and the bacterial load of the lung (log10 CFU/lung) in each mouse was calculated. In vivo efficacy was calculated as the difference of the log10 CFU/lung values between the treated mice at 24 h and the pre-treatment (control) at 0 h (Δlog10 CFU/lung = log10 [treated] CFU/lung − log10 [pre-treatment] CFU/lung).
# [6] = test system: P. aeruginosa PAM1626; test: Efflux inhibition assay (Leu-Nap hydrolysis), efflux-deficient strain; assay type: cell-based, Pseudomonas aeruginosa
# Experimental: (§2) Bacterial strains were seeded in 50 mL of Luria-Bertani (LB) broth at OD600 0.05 and grown at 37 °C for 3-4 h until an OD600 of 0.6–0.8 was achieved. Bacterial cells were washed twice with 25 mL of buffer (50 mM sodium phosphate, 0.5% glucose, pH 7, with or without 1 mM Mg^2+), resuspended in 10 mL of the buffer, and then adjusted to an OD600 of 0.4. […] Bacterial suspension (50 μL, OD600 0.4) in buffer was added to the lipopeptide solutions and the rate of substrate hydrolysis was measured at 490 nm.
# (§3) Activity of F365 and polymyxin B in the efflux inhibition assay.
# (§4) One of the consequences of disruption/permeabilization of the cytoplasmic membrane by polymyxins is the dissipation of the proton gradient across the cytoplasmic membrane. […]
# (§5) these compounds are expected to inhibit proton-dependent transport activity across the cytoplasmic membrane including efflux. Efflux activity and its inhibition by F365 was assessed by examining the rates of hydrolysis of a fluorogenic substrate of efflux pumps, Leu-Nap, by intact cells of P. aeruginosa. For these experiments we used two strains of P. aeruginosa, PAM1723 and PAM1626. PAM1723 overexpresses the efflux pump MexAB-OprM and PAM1626 lacks this pump as well as several other pumps that extrude Leu-Nap. […] The rate of production of β-naphthylamine (recorded as an increase in fluorescence) is limited by the rate of entry of Leu-Nap into the cells. […]
# [7] = test system: K. pneumoniae FADDI-KP132; test: MIC, polymyxin-resistant isolate; assay type: cell-based, Klebsiella pneumoniae; settings: mcr-1 positive
# Experimental: MICs were determined in cation-adjusted Mueller–Hinton broth (CaMHB) by the broth micro-dilution method against ATCC strains and clinical isolates. MICs in the presence of Survanta® were determined as described above against P. aeruginosa ATCC 27853. In the 100 μL of fresh CaMHB containing polymyxins, 10% Survanta® (v/v, 2.5 mg/mL phospholipids) was added. MICs in the presence and absence of Survanta® were compared to determine the effect of binding to lung surfactant on the antibacterial activity of polymyxins.
# [8] = test system: P. aeruginosa PAM1723 (overexpresses MexAB-OprM); assay type: cell-based, Pseudomonas aeruginosa; settings: Leu-Nap hydrolysis
# Experimental: as §2, §3, §4, §5
Compound,MTD [1] [mg/kg],MIC A. baumannii FADDI-AB144 ([2]; FADDI-AB144) [µg/mL],MIC A. baumannii FADDI-AB161 ([3]; FADDI-AB161) [µg/mL],MIC A. baumannii FADDI-AB051 ([4]; FADDI-AB051) [µg/mL],bacterial killing in lung at 24 h vs pre-treatment inoculum [5],bacterial killing in lung at 24 h ([5]; 90 mg/kg/d IP in three divided doses every 8 h),"Tukey HSD diff, Pre-treatment minus treated group (Log10 CFU/lung) ([5]; 45mg/kg/d)","Tukey HSD diff, Vehicle minus treated group (Log10 CFU/lung) ([5]; 45mg/kg/d)","Tukey HSD diff, Pre-treatment minus treated group (Log10 CFU/lung) ([5]; 90mg/kg/d)","Tukey HSD diff, Vehicle minus treated group (Log10 CFU/lung) ([5]; 90mg/kg/d)",Log10 CFU/lung ([5]; 45mg/kg/d),Log10 CFU/lung ([5]; 90mg/kg/d),effect on the rate of Leu-Nap hydrolysis [6],MIC K. pneumoniae FADDI-KP132 [7] [µg/mL],"IC50, inhibition of efflux activity [8] [µg/mL]",MIC A. baumannii FADDI-AB144 ([2]; polymyxin-resistant) [µg/mL],MIC A. baumannii FADDI-AB161 ([3]; polymyxin-resistant) [µg/mL],MIC A. baumannii FADDI-AB051 ([4]; carbapenem-resistant) [µg/mL]
"CCCCCCCC(=O)N[C@@H](CCN)C(=O)N[C@H](C(=O)N[C@@H](CN)C(=O)N[C@H]1CCNC(=O)[C@H]([C@@H](C)O)NC(=O)[C@H](CCN)NC(=O)[C@H](CCN)NC(=O)[C@H](CC)NC(=O)[C@@H](CC(C)C)NC(=O)[C@H](CCN)NC1=O)[C@@H](C)O [Lipopeptide F287] (HELM PEPTIDE1{[CCCCCCCC(=O)[*:2]].[Dab].T.[NC[C@H](N[*:1])C(=O)[*:2]].[Dab].[Dab].[dL].[Abu].[Dab].[Dab].T}$PEPTIDE1,PEPTIDE1,5:R3-11:R2$$$V2.0)",6,–,–,–,–,–,–,–,–,–,–,–,–,–,–,–,–,–
"CC[C@@H]1NC(=O)[C@@H](CC(C)C)NC(=O)[C@H](CCN)NC(=O)[C@@H](NC(=O)[C@H](CN)NC(=O)[C@@H](NC(=O)[C@H](CCN)NC(=O)c2ccc(Cl)cc2Cl)[C@@H](C)O)CCNC(=O)[C@H]([C@@H](C)O)NC(=O)[C@H](CCN)NC(=O)[C@H](CCN)NC1=O [Lipopeptide F365] (HELM PEPTIDE1{[O=C(c1ccc(Cl)cc1Cl)[*:2]].[Dab].T.[NC[C@H](N[*:1])C(=O)[*:2]].[Dab].[Dab].[dL].[Abu].[Dab].[Dab].T}$PEPTIDE1,PEPTIDE1,5:R3-11:R2$$$V2.0)",13,32,1,0.5,did not show any significant killing,bacterial killing,-1.2425,0.7467,2.8025,4.792,7.89 Log10 CFU/lung and 8.25 Log10 CFU/lung and 7.87 Log10 CFU/lung and 7.93 Log10 CFU/lung,3.25 Log10 CFU/lung and 3.88 Log10 CFU/lung and 6.08 Log10 CFU/lung and 2.55 Log10 CFU/lung,no effect,8,4.2 ± 1.5,–,–,–
Polymyxin B [reference compound],–,–,–,–,did not show any significant killing,–,-1.5825,0.4067,–,–,8.40 Log10 CFU/lung and 8.27 Log10 CFU/lung and 8.53 Log10 CFU/lung and 8.10 Log10 CFU/lung,–,no effect,8,7.6 ± 1.4,16,8,0.5
